In patent US9205121B2, “Echinacea formulation” (Integria Healthcare (Australia) PTY LTD, priority 2004, dated 2015):

Columns and labels:
Type in all cases: in vitro ADME
[1] = biological target: T1, P450 2C19 (Homo sapiens, UniProt P33261); experiment: metabolism of 3 by recombinant human P450; settings: recombinant P450 2C19, preliminary screen
T1 construct: made in house; host or cells: Escherichia coli, bacterial membrane fraction, bicistronic vector; reductase topped up to five fold the P450 concentration
From the text: (§1) Recombinant P450s were co-expressed with hNPR in Escherichia coli according to the general procedures outlined previously. Recombinant P450 preparations were obtained from bacteria transformed with bicistronic expression vectors for P450s 1A1, 1A2, 2D6, 2E1 and 3A4 [6]; 1B1 [10]; 2A6 [8]; P450 2B6 [11]; 2C9 (wild type; P450 2C9*1) and 2C19 [12]; 3A5 and 3A7 [12] and 4A11 (D. Kim and F. P. Guengerich, unpublished data). cDNAs for P450s 2C8 and 2C18 were obtained from Prof D. J. Birkett (Flinders University of South Australia) and Prof. Philippe Beaune (INSERM U490, Universite Rene Descartes, Paris V, France) respectively, and bicistronic constructs in pCW were made according to previously published methods. Membranes from cells transformed with the monocistronic expression vector for recombinant human reductase, pCW′/hNPR, were used as a negative control. Expression of P450s and preparation of bacterial membrane fractions was done according to established methods.
(§2) Incubations (0.2 mL) with recombinant enzyme preparations were performed as described above except that bacterial membrane preparations were used at 0.1 μM P450. For P450s 3A4 and 3A5, reductase concentrations were supplemented to two fold the P450 concentration by addition of membranes from cells expressing reductase alone. For P450s 2C9 and 2C19, reductase concentrations were supplemented to five fold the P450 concentration. Negative controls contained bacterial membranes derived from cells transformed with the empty expression vector alone (“pCW”) or cells expressing only reductase (“hNPR”). Negative controls contained membranes added at total protein (“pCW”) or reductase “hNPR”) concentrations at the upper limit of those present in incubations with recombinant P450 preparations.
(§3) A preliminary screen was performed to investigate metabolism of 3 by recombinant human P450s.

[2] = biological target: T2, P450 2C8 (Homo sapiens, UniProt P10632); experiment: metabolism of 3 by recombinant human P450; settings: recombinant P450 2C8, preliminary screen
T2 construct: made in house; host or cells: Escherichia coli, bacterial membrane fraction, bicistronic construct in pCW
T2 sequence (P10632 1-490): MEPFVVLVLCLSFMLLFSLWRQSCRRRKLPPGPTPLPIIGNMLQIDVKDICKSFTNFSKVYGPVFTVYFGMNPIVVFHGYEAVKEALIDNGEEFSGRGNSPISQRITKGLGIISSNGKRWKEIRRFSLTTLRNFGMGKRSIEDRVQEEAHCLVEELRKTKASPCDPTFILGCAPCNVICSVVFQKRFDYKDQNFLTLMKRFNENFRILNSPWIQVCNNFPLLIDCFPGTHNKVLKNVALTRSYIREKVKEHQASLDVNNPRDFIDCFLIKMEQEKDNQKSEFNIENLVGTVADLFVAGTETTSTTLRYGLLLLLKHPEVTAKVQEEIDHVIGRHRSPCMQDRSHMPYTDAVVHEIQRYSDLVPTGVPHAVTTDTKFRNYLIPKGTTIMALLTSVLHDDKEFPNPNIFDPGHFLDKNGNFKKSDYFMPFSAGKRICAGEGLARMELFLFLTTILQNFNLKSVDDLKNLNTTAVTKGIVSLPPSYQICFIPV
From the text: as §1, §2, §3

[3] = system: human liver microsomes
Protocol: Livers were obtained from organ donors according to procedures is approved by the University of Queensland ethics committees. Samples of human liver were frozen in liquid nitrogen and stored at −70° C. prior to use. Microsomes were prepared according to the method of Guengerich except that microsomes were subjected to a final wash in 10 mM Tris-acetate, 1 mM EDTA and 20% glycerol pH 7.4 (resuspension buffer) to remove residual drugs (e.g. phenytoin—data not shown) present in donor livers.
Incubations (0.5 mL) with tissue fractions contained either the microsomal fraction at […] or the cytosolic fraction at 5 mg/mL protein in 100 mM potassium phosphate (pH 7.4) supplemented with is substrates (synthetic alkylamides 6, 11, 3 and 12 or the alkylamide fraction from the ethanolic liquid as required—see Figure legends for concentrations used) added from ethanolic stocks. Final ethanol concentrations were either 0.70% or 0.96% and were consistent in each assay. Reactions were initiated by the addition of an NADPH-generating system consisting of (final concentrations) […] NADP+, 10 mM glucose-6-phosphate and 0.5 μ/mL glucose-6-phosphate dehydrogenase. Negative controls and cytosolic incubations lacked an NADPH-generating system. Reaction mixtures were incubated at 37° C. with gentle agitation for the duration of each experiment. Reactions were terminated by addition of an equal volume of 100% methanol to a sample aliquot. Diluted samples were then centrifuged at 16000×g for 2 minutes and supernatants stored at −20° C. until analysis by LCMS.
Alkylamide concentrations in samples were determined by LCMS using a gradient HPLC system (Shimadzu LC1OAT) coupled to a quadrupole mass spectrometer (Shimadzu, QP8000a) operating in positive SIM mode with an APCI interface. The mobile phases were a mixture of water and acetonitrile. Alkylamides 6 and 3 were detected using a 65% acetonitrile isocratic run. Alkylamides 11 and 12 were detected using an 85% acetonitrile isocratic run. The alkylamide fraction was analysed using a gradient that increased from 20% to 40% acetonitrile over the first 5 minutes, then to 80% acetonitrile over the following 15 minutes and to 100% over the next 3 minutes followed by a re-equilibration period at 20% acetonitrile prior to the next injection. A similar gradient was used in scan and then SIM (M+1 of 248, 264, 246, 192, 280 and 282) modes to identify metabolites of 3. A C18, 3 m, 100×2.00 mm Phenomenex Luna column was used with a solvent flow rate of 0.3 mL/minute. All alkylamides were linear in the range 0.001-10 mg/mL (R^2>0.9) with a coefficient of variation between 4 and 5.
A number of pure, synthetic alkylamides (6, 11 3 and 12 as shown in FIG. 1) as well as the complex mixture of alkylamides obtained from an ethanolic extract of Echinacea were investigated for their susceptibility to liver P450-mediated degradation in microsomal preparations from four different subjects. The concentration of each substrate remaining at the given time points was quantified with LCMS and rates of substrate depletion were calculated as a percentage of the original concentration. […] From FIG. 3 it can be seen that there was a clear difference in the ability of the liver microsomal P450s to metabolise the synthetic 2-ene and the 2,4-diene alkylamides. […] In contrast, the 2,4-dienes were rapidly metabolised with only 9±2% of the original concentration of 3 and 2±1% of the original concentration of 12 detected after 2 hours. […]

T1 sequence (P33261 whole entry): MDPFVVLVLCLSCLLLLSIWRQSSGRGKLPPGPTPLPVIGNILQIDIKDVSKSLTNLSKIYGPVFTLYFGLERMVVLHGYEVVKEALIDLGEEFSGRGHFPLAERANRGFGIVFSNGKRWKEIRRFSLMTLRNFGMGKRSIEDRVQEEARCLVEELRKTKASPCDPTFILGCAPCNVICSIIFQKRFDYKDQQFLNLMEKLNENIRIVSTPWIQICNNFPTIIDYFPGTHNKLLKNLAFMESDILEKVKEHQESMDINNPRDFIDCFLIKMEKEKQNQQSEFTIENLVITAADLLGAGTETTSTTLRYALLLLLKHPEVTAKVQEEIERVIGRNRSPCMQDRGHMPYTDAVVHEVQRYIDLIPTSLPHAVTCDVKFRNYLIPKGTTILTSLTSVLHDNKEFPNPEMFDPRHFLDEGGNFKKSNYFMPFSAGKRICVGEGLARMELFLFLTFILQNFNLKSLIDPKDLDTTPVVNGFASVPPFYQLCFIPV

consumption of 3 [1]: observed | consumption of 3 [2]: observed | rate of alkylamide metabolism relative to the rate found for 6 [3]: seven fold higher | % of initial levels still present ([3]; human, 2 h, pH 7.4): 66±26%
SMILES: C/C=C\C=C/CC/C=C/C=C/C(=O)NCC(C)C [alkylamide 3, (2E,4E,8Z,10Z)—N-isobutyldodeca-2,4,8,10-tetraenamide]
